Publication PMC12115217, “3,3′-((3-Hydroxyphenyl)azanediyl)dipropionic Acid Derivatives as a Promising Scaffold Against Drug-Resistant Pathogens and Chemotherapy-Resistant Cancer” (Pathogens, 2025)
≈ marks a conversion by molar mass, not a printed value. Counter-ions that a name gives are not always drawn. Like-named read-outs stand apart in the source and are kept apart here.

What was measured:
K. pneumoniae AR-0003 = assay: Broth microdilution MIC, K. pneumoniae AR-0003; format: cell-based; conditions: Klebsiella pneumoniae, AR0003; KPC-3; CAMHB, 18 ± 2 h; read-out: minimal inhibitory concentration (MIC) K. pneumoniae AR-0003
E. coli AR-0001 = assay: Broth microdilution MIC, E. coli AR-0001; format: cell-based; conditions: Escherichia coli, AR0001; multidrug-resistant, KPC-3; CAMHB, 18 ± 2 h; read-out: minimal inhibitory concentration (MIC) E. coli AR-0001
E. faecalis AR-0671 = assay: Broth microdilution MIC, E. faecalis AR-0671; format: cell-based, Enterococcus faecalis; conditions: for MIC: Enterococcus faecalis
From the text: (§1) The multidrug-resistant S. aureus strain TCH 1516 [USA 300-HOU-MR] was obtained from the American Type Culture Collection (ATCC, Manassas, VA, USA) (Table 1). E. faecalis AR-0671, multidrug-resistant E. coli AR-0001, K. pneumoniae AR-0003, P. aeruginosa AR-1114, and A. baumannii AR-0273 strains were acquired from the Centers for Disease Control and Prevention (CDC) AR isolate bank (Table 1). Prior to the initiation of this study, all microbial strains were stored in commercial cryopreservation systems at a temperature of −80 °C. The strains were cultivated on Columbia sheep blood agar (Becton Dickinson, Franklin Lakes, NJ, USA) or potato dextrose agar (PDA) for Candida (Becton Dickinson, Franklin Lakes, NJ, USA).
(§2) The antimicrobial activity of 3-((3-hydroxyphenyl)amino)propanoic acid derivatives was assessed by using the broth microdilution method, following the guidelines outlined by the Clinical Laboratory Standards Institute (CLSI), with modifications. In brief, the compounds were dissolved in dimethyl sulfoxide (DMSO) to attain a final concentration of 25–30 mg/mL. Vancomycin hydrochloride (MedChem express, Cat. No. HY-17362), cefazolin (MedChem express, Cat. No. HY-B1892), and meropenem (MedChem express, Cat. No. HY-13678) were used as control antimicrobial drugs and were dissolved in DMSO as described before. Dilution series were prepared in deep 96-well microplates to achieve a two-fold concentration range of 0.25, 0.5, 1, 2, 4, 8, 16, 32, and 64 µg/mL, utilizing cation-adjusted Mueller–Hinton broth (CAMHB) as the growth medium. The microplates containing the dilution series were then inoculated with fresh cultures of each tested organism to reach a final concentration of 5 × 10^4 CFU (colony-forming units) of the test organism in media containing 1% DMSO and 1× drug concentration, with a volume of 200 µL per well. Wells that were inoculated with medium containing 1% DMSO served as positive controls. Subsequently, the microplates were incubated at 35 ± 1 °C for 18 ± 2 h. Following the incubation period, the plates were examined by using a manual microplate viewer (Sensititre Manual Viewbox, ThermoFisher Scientific, Waltham, MA, USA). […] All experiments were conducted in duplicate with three technical replicates for each condition.

P. aeruginosa AR-1114 = assay: Broth microdilution MIC, P. aeruginosa AR-1114; format: cell-based; conditions: Pseudomonas aeruginosa, AR1114; IMP-15; CAMHB, 18 ± 2 h; read-out: minimal inhibitory concentration (MIC) P. aeruginosa AR-1114
A. baumannii AR-0273 = assay: Broth microdilution MIC, A. baumannii AR-0273; format: cell-based, Acinetobacter baumannii; conditions: Acinetobacter baumannii, AR0273; OXA-23; CAMHB, 18 ± 2 h; read-out: minimal inhibitory concentration (MIC) A. baumannii AR-0273
From the text: as §1, §2

S. aureus TCH 1516 = assay: Broth microdilution MIC, S. aureus TCH 1516; format: cell-based; conditions: Staphylococcus aureus
FaDu cells = assay: MTT cell viability at fixed 100 µM, FaDu cells; format: cell-based; conditions: 24 h, described in words (Figure 2)
Procedure: Test compounds 2–25 were dissolved in hybridoma-grade dimethyl sulfoxide (Millipore, Sigma, Burlington, MA, USA) to prepare stock solutions at concentrations of 10–25 mg/mL. […] For in vitro anticancer activity screening, the compounds were thawed at room temperature, protected from light, and the aliquots were diluted in complete cell culture media to achieve a final concentration of 100 µM and used for the in vitro assays. The cytotoxicity assays were performed in triplicate.
FaDu cells were obtained from the American Type Culture Collection (Rockville, MD, USA). HEK293 cells were kindly provided by Dr. Iliev lab at the Jill Roberts Institute for Inflammatory Bowel Disease, Weill Cornel Medicine of Cornel University (New York, NY, USA). All cells were cultivated in Dulbecco’s Modified Eagle Medium/Nutrient Mixture F-12 (DMEM/F-12) (Gibco, Waltham, MA, USA), 10% fetal bovine serum (FBS) (Gibco, Waltham, MA, USA), 100 U/mL penicillin, and 100 μg/mL streptomycin (P/S) (Gibco, Waltham, MA, USA). Culturing conditions were maintained at 37 °C in a humidified atmosphere containing 5% CO2. The culture medium was refreshed every 2–3 days, and cells were passaged upon reaching 70–80% confluence.
The in vitro inhibitory effects of the compounds were assessed by using the MTT assay. Briefly, cells were plated in 96-well plates at a density of 1 × 10⁴ cells per well. After the cells were allowed to adhere overnight at 37 °C in 5% CO₂, they were treated with compounds at a concentration of 100 µM in triplicate. Following a 20 h incubation, the MTT reagent was added, and the cells were further incubated for 4 h. The resulting formazan was solubilized in anhydrous DMSO, and absorbance was measured at 570 nm by using a microplate reader. Cell viability was calculated by using the following formula: ([AE − AB]/[AC − AB]) × 100%, where AE, AC, and AB represent the absorbance values of experimental samples, untreated controls, and blank wells, respectively. Data analysis was performed by using GraphPad Prism or QuickCalcs.

[1] = AR0671, CAMHB, 18 ± 2 h, read-out: minimal inhibitory concentration (MIC) E. faecalis AR-0671
[2] = MRSA / USA300, mecA MRSA isolate, USA300 lineage, CAMHB, 18 ±, read-out: minimal inhibitory concentration (MIC) S. aureus TCH 1516

Compound	MIC (K. pneumoniae AR-0003)	MIC (E. coli AR-0001)	MIC (E. faecalis AR-0671; [1])	MIC (P. aeruginosa AR-1114)	MIC (A. baumannii AR-0273)	MIC (S. aureus TCH 1516; [2])	post-treatment viability (MTT assay) (FaDu cells)	minimal inhibitory concentration (MIC) E. faecalis AR-0671 (E. faecalis AR-0671; CAMHB)	MIC (E. faecalis AR-0671; AR0671, read-out: minimal inhibitory concentration (MIC) E. faecalis AR-0671)	MIC (S. aureus TCH 1516; MRSA / USA300, read-out: minimal inhibitory concentration (MIC) S. aureus TCH 1516)
Cc1nnc(SCC2=C(C(=O)O)N3C(=O)[C@@H](NC(=O)Cn4cnnn4)[C@H]3SC2)s1 [Cefazolin, cefazolin, reference compound]	> 64 µg/mL	> 64 µg/mL	8 µg/mL (≈ 17.6 µM)	> 64 µg/mL	> 64 µg/mL	32 µg/mL (≈ 70.4 µM)	–	–	–	–
COC(=O)CCN(CCC(=O)OC)c1cccc(O)c1 [Compound 3, Dimethyl 3,3′-((3-hydroxyphenyl)azanediyl)dipropionate]	> 64 µg/mL	32 µg/mL (≈ 114 µM)	> 64 µg/mL	> 64 µg/mL	> 64 µg/mL	> 64 µg/mL	minimal cytotoxicity	–	–	–
O=C(CCN(CCC(=O)NN=Cc1ccc(F)cc1F)c1cccc(O)c1)NN=Cc1ccc(F)cc1F [Compound 9, 3,3′-((3-Hydroxyphenyl)azanediyl)bis(N′-(2,4-difluorobenzylidene)propanehydrazide)]	> 64 µg/mL	> 64 µg/mL	> 64 µg/mL	> 64 µg/mL	> 64 µg/mL	> 64 µg/mL	–	–	–	–
O=C(CCN(CCC(=O)NN=Cc1ccc(Cl)cc1)c1cccc(O)c1)NN=Cc1ccc(Cl)cc1 [Compound 11, 3,3′-((3-Hydroxyphenyl)azanediyl)bis(N′-(4-chlorobenzylidene)propanehydrazide)]	> 64 µg/mL	> 64 µg/mL	> 64 µg/mL	> 64 µg/mL	> 64 µg/mL	64 µg/mL (≈ 122 µM)	–	>64 µg/mL	–	–
CN(C)c1ccc(/C=N/NC(=O)CCN(CCC(=O)N/N=C/c2ccc(N(C)C)cc2)c2cccc(O)c2)cc1 [Compound 12]	64 µg/mL (≈ 118 µM)	> 64 µg/mL	> 64 µg/mL	64 µg/mL (≈ 118 µM)	64 µg/mL (≈ 118 µM)	64 µg/mL (≈ 118 µM)	enhanced cytotoxic effects	–	–	–
O=C(CCN(CCC(=O)NN=Cc1cccc2ccccc12)c1cccc(O)c1)NN=Cc1cccc2ccccc12 [Compound 14, 3,3′-((3-Hydroxyphenyl)azanediyl)bis(N′-(naphthalen-1-ylmethylene)propanehydrazide)]	> 64 µg/mL	64 µg/mL (≈ 115 µM)	8 µg/mL (≈ 14.3 µM)	> 64 µg/mL	> 64 µg/mL	2 µg/mL (≈ 3.59 µM)	–	–	–	–
O=C(CCN(CCC(=O)N/N=C/c1ccco1)c1cccc(O)c1)N/N=C/c1ccco1 [Compound 15]	> 64 µg/mL	> 64 µg/mL	> 64 µg/mL	64 µg/mL (≈ 146 µM)	64 µg/mL (≈ 146 µM)	> 64 µg/mL	enhanced cytotoxic effects	–	–	–
CCC(C)=NNC(=O)CCN(CCC(=O)NN=C(C)CC)c1cccc(O)c1 [Compound 20, 3,3′-((3-Hydroxyphenyl)azanediyl)bis(N′-(butan-2-ylidene)propanehydrazide)]	> 64 µg/mL	> 64 µg/mL	32 µg/mL (≈ 82.2 µM)	> 64 µg/mL	> 64 µg/mL	16 µg/mL (≈ 41.1 µM)	–	–	–	–
CC(=NNC(=O)CCN(CCC(=O)NN=C(C)c1ccccc1)c1cccc(O)c1)c1ccccc1 [Compound 21, 3-((3-Hydroxyphenyl)(3-oxo-3-(2-(1-phenylethylidene)hydrazineyl)propyl)amino)-N′-(1-phenylethylidene)propanehydrazide]	> 64 µg/mL	> 64 µg/mL	32 µg/mL (≈ 65.9 µM)	> 64 µg/mL	> 64 µg/mL	32 µg/mL (≈ 65.9 µM)	–	–	–	–
C/C(=N\NC(=O)CCN(CCC(=O)N/N=C(\C)c1ccc(S(N)(=O)=O)cc1)c1cccc(O)c1)c1ccc(S(N)(=O)=O)cc1 [Compound 22, 4,4′-(((3,3′-((3-Hydroxyphenyl)azanediyl)bis(propanoyl))bis(hydrazin-2-yl-1-ylidene))bis(ethan-1-yl-1-ylidene))dibenzenesulfonamide]	> 64 µg/mL	16 µg/mL (≈ 24.9 µM)	32 µg/mL (≈ 49.7 µM)	> 64 µg/mL	> 64 µg/mL	8 µg/mL (≈ 12.4 µM)	–	–	–	–
Cc1ccc(C)n1NC(=O)CCN(CCC(=O)Nn1c(C)ccc1C)c1cccc(O)c1 [Compound 23, 3,3′-((3-Hydroxyphenyl)azanediyl)bis(N-(2,5-dimethyl-1H-pyrrol-1-yl)propanamide)]	> 64 µg/mL	> 64 µg/mL	> 64 µg/mL	> 64 µg/mL	> 64 µg/mL	64 µg/mL (≈ 146 µM)	reduced viability	–	–	–
C[C@@H](O)[C@H]1C(=O)N2C(C(=O)O)=C(S[C@@H]3CN[C@H](C(=O)N(C)C)C3)[C@H](C)[C@H]12 [Meropenem, meropenem, reference compound]	64 µg/mL (≈ 167 µM)	8 µg/mL (≈ 20.9 µM)	2 µg/mL (≈ 5.22 µM)	32 µg/mL (≈ 83.4 µM)	> 64 µg/mL	2 µg/mL (≈ 5.22 µM)	–	–	–	–
CN[C@H](CC(C)C)C(=O)N[C@H]1C(=O)N[C@@H](CC(N)=O)C(=O)N[C@H]2C(=O)N[C@H]3C(=O)N[C@H](C(=O)N[C@H](C(=O)O)c4cc(O)cc(O)c4-c4cc3ccc4O)[C@H](O)c3ccc(c(Cl)c3)Oc3cc2cc(c3O[C@@H]2O[C@H](CO)[C@@H](O)[C@H](O)[C@H]2O[C@H]2C[C@](C)(N)[C@H](O)[C@H](C)O2)Oc2ccc(cc2Cl)[C@H]1O [Vancomycin, Vancomycin hydrochloride, reference compound]	–	–	–	–	–	–	–	–	4 µg/mL	2 µg/mL
